Source: US20260023070A1, “OPTOGENETIC ALPHA-SYNUCLEIN AGGREGATION SYSTEM-BASED COMPOUND SCREENING PLATFORM IN PD-hiPSC-mDA NEURONS” (The Johns Hopkins University, priority 2022, published 2026)

Tests used:
[1] = tested on: opto-α-syn SH-SY5Y cells; assay: OASIS-based high-content imaging assay of light-induced α-syn aggregation (5G4 staining, Aggregates Induction Score); type: cell-based, human
Method: The opto-α-syn expressing SH-SY5Y cells were seeded in 96-well black flat bottom imaging microplates (Falcon) at 30,000 cells per well in 100 μL of complete media using E1-ClipTip electronic multichannel pipette (Thermo Fisher Scientific) and incubated in 37° C. and 5% CO2 humidified incubator. After 18 h of incubation, 10 μL of 10 μM compounds (column 2 to 10) or 1% DMSO (column 1 and 12) were added (final concentration of DMSO is 0.1%). In order to induce aggregations, the plates were illuminated with blue light (26 μW/mm^2) on customized blue light illumination 96-well plates for 2 h. Afterward, cells were fixed in 4% paraformaldehyde (PFA) for 15 min and stained with the aggregated-α-syn antibody (5G4) after permeabilization with 0.1% Triton X-100/0.5% BSA/PBS solution. […] To analyze images, the automated aggregation quantification algorithm and cell counting algorithm in the form of macro are developed using ImageJ software. Briefly, the algorithm includes the inversion, subtracting background, threshold selection, analyzing particles with ranged size and circularity. The Aggregates Induction Score (AIS) is calculated using, the following equation: […]
where N^agg is the number of aggregates, ^Ntotal is the number of total cells. The AIS in each well is normalized by the AIS in positive control which is set as 1.0. […] The hit selection strategy was based on calculated AIS; hits were defined as AIS<0.5. […] Two independent experiments were performed, and total 10 images per well are analyzed to calculate AIS.
As illustrated in FIGS. 8A-8E, high-content imaging screening with the optogenetic α-syn aggregation system was performed, following the schematic representation of the process of high-content imaging (HCI) screening with optogenetics-assisted method of alpha-synuclein aggregation induction system (OASIS) (FIG. 8A). SH-SY5Y cells expressing opto-α-syn were in dark or exposed to blue light (26 μW/mm^2 at 470 nm, 1 Hz, 1 s) for 1.5 h under 96-well plate culture conditions, and then immunostained with 5G4 antibody. The equation of Aggregates Induction Score (AIS) (FIG. 8B) was used for the calculation of Z′-factor for HCI screening with OASIS (FIG. 8C). […] Arrow represents the degree of separation (Z′-factor) between light-illuminated and darkness controls. […] Detailed information of numbered compounds was described in Table 1. One-way ANOVA followed by Dunnett's post hoc test (n=10 or 20, 5 or 10 images each from two independent experiments). *P<0.05, **P<0.01, ***P<0.001, ****P<0.0001.
As illustrated in FIGS. 9A-9B, high-content imaging screening with the optogenetic α-syn aggregation system was performed. The measurement of 5G4^+ aggregates in opto-mock or opto-α-syn SH-SY5Y neuronal cells was assessed. Cells were in dark or exposed to blue light (26 μW/mm^2 at 470 nm, 1 Hz, 1 s) for 1.5 h, and then immunostained with 5G4 antibody. […] Images were converted to grayscale, and a threshold was adjusted to exclude the background based on the size of particles. Once the value of threshold was determined, all the images were applied with the fixed threshold, and then the number of aggregates was measured (FIG. 9A). Number of DAPI from the original images were counted (FIG. 9B). Representative images of opto-α-syn SH-SY5Y neuronal cells treated with 19 compounds under 24-well plate culture conditions were imaged. SH-SY5Y cells expressing opto-α-syn were in dark or exposed to blue light (34 μW/mm^2 at 470 nm, 1 Hz, 0.5 s) for 1.5 h, and then immunostained with 5G4 antibody.

[2] = tested on: mouse primary neurons treated with α-syn PFF; assay: α-syn PFF model in mouse primary neurons (TX-insoluble pathologic α-syn); type: cell-based
Method: To validate the effects of these two compounds on the OASIS-independent model, α-syn PFF were treated with mouse primary neurons and non-OASIS-human PD hiPSC-derived mDA neurons with CDC 021 and BAG 956.

[3] = tested on: α-syn PFF-treated opto-α-syn-mDA neurons; assay: Autophagy markers (western blot) in α-syn PFF-treated mDA neurons; type: cell-based, human; conditions: compared with control or CDC 021 treatment
Method: Because autophagy can be activated by the inhibition of PI 3-kinase (PI3K) or the PDK1 pathway, it was tested whether treatment with BAG 956 can induce the autophagic flux to decrease α-syn aggregates in opto-α-syn mDA neurons and MOs.

[4] = tested on: PI3K-PDK1/AKT/mTOR signaling pathway; assay: PI3K/PDK1 downstream target phosphorylation in α-syn PFF-treated PD hiPSC-derived dopaminergic neurons; type: cell-based, human
Text: (§1) Since PI3K-PDK1/AKT/mTOR signaling pathway plays a critical role in regulation of autophagy, it was investigated the effects of BAG 956 treatments on PFF models. […] Taken together, BAG 956 may act as an autophagy-enhancing drug through inhibition of the PI3K-PDK1/AKT/mTOR signaling pathway (FIG. 18I).

[5] = tested on: PI3K-PDK1/AKT/mTOR signaling pathway; assay: PI3K/PDK1 downstream target phosphorylation in α-syn PFF-treated mouse primary neurons; type: cell-based
Text: as §1

[6] = tested on: tau-PFF injected mice; assay: tau-PFF injected mice, AT8 immunofluorescence in dentate gyrus; type: in vivo
Method: To find in vivo efficacy in a pilot exponential set and set a drug dosage, an in vivo experiment with the tau-PFF injected mice with DMSO or BAG treatment ([…]) was performed. Intraperitoneal injection of different concentrations (0, 5, 10 mg/kg) of BAG was given for one month, once every two days. Immunofluorescence staining results of AT8 in the dentate gyrus of C57bl/6j mice (3 per group) after injection of K18-tau PFF (5 μg/kg) into the hippocampus for two months was performed (data not shown).

Cc1nc2cnc3ccc(C#Cc4cccnc4)cc3c2n1-c1ccc(C(C)(C)C#N)cc1 [BAG 956]
AIS compared to blue light-illuminated DMSO control ([1]; two independent experiments, 24-well culture conditions, blue light stimulation): significant decrease | AIS, aggregates induction score ([1]; validation of 19 hits, 24-well plates, blue light, AIS normalized to positive control (blue light, DMSO) set as 1.0): 0.34 | pathologic α-syn in the Triton X-100 (TX)-insoluble fraction [2]: significantly reduced | level of autophagic marker LC-311 [3]: up-regulated | level of autophagy flux protein p62 [3]: down-regulated | Phosphorylation of PDK1 downstream targets PI3K, AKT, S6K, and mTOR [4]: significantly reduced | Phosphorylation of PDK1 downstream targets PI3K, AKT, S6K, and mTOR [5]: significantly reduced | toxicity ([6]; 10 μg/kg dosage as printed): without noticeable toxicity | levels of the AT8+ phosphorylated-tau ([6]; intraperitoneal, once every two days for one month, 5 and 10 mg/kg): significantly decreased
